biological target: T1, Recombinant human TPH1 (MBP tagged) (Homo sapiens, UniProt P17752); assay: TPH1 in vitro inhibition assay (kinetic fluorescence); assay type: biochemical; settings: TPH1 Range (TPH1 inhibition IC50)
T1 construct: cloning full length human TPH1 cDNA in to a bacterial pMAL-c5E expression vector; made in house; host or cells: E. coli BL21 (DE3)
T1 sequence (P17752 1-444): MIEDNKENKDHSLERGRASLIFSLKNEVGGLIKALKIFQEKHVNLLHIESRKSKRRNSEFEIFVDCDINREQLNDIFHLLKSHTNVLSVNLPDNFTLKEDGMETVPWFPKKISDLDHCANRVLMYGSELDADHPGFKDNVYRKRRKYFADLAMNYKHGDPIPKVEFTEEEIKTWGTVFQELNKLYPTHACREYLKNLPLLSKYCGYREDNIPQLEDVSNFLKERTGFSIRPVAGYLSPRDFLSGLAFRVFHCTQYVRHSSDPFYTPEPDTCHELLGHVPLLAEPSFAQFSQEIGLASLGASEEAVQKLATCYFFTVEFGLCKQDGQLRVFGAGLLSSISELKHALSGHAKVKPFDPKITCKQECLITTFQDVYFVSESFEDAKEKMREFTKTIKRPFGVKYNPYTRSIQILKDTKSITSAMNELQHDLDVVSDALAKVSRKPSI
Text: Recombinant human TPH1 (rTPH1 GenBank™ accession no. NP_004179) was expressed by cloning full length human TPH1 cDNA in to a bacterial pMAL-c5E expression vector to produce maltose-binding protein (MBP) TPH1 fusion proteins. E. coli BL21 (DE3) containing pMAL-c5E-TPH1 was used for protein generation and the recombinant protein was purified utilizing standard column chromatography techniques. The MBP tagged TPH1 (MBP-TPH1) was used directly to screen compounds as described below. Recombinant human TPH2 (rTPH2 GenBank™ accession no. 173353), PheOH (rPheOH GenBank™ accession no. K03020) and TH (rTH GenBank™ accession no. L20679) with an MBP tag were produced similarly.
TPH1 activities were measured in an assay containing 200 mM ammonium sulfate, 7 mM DTT, 50 μg/mL catalase, 25 μM ammonium iron sulfate, 50 mM MES, pH 7.1. Test compounds were diluted in 100% DMSO and added to the assay plate in 1 μL aliquots at 100× final concentration. Fifty microliters of assay buffer containing 30 nM TPH1 enzyme (MBP tagged) were added to the plate wells containing the test compound by the use of an Eppendorf repeater pipette. The reaction was initiated by the addition of 50 μL of assay buffer containing 60 μM tryptophan and 72 μM 6-6-methyltetra-hydropterin (2× final concentration) by the use of a Multidrop (LabSystems). Final reaction conditions were 15 nM TPH1 enzyme, 30 μM tryptophan, 36 μM 6-methyltetra-hydropterin, 200 mM ammonium sulfate, 7 mM DTT, […], 25 μM ferrous ammonium sulfate, 50 mM MES, pH 7.1, with atmospheric oxygen at room temperature. The plate was immediately placed onto an M5 plate reader (Molecular Devices) for kinetic fluorescence measurement using an excitation setting of 300 nm and an emission setting of 335 nm. Fluorescence reads are recorded in kinetic mode for 300 seconds (5 minutes).
Kinetic assay data for compounds at specific concentrations was translated into slopes using the Softmax Pro software on a Spectramax reader, and compound inhibition slopes were compared with wells containing enzyme, substrate and cofactor in the absence of inhibitor (100%), and wells containing substrate and cofactor in the absence of enzyme (0%). DMSO concentration in the assay was 1%. […] IC50's were determined using Graphpad Prism.

First: NC(=O)c1cccc(-c2cc(Cl)ccc2[C@@H](Oc2cc(N3CCC4(CC3)CN[C@H](C(=O)O)C4)nc(N)n2)C(F)(F)F)c1 [Example 34ac, (S)-8-(2-amino-6-((R)-1-(3′-carbamoyl-5-chloro-[1,1′-biphenyl]-2-yl)-2,2,2-trifluoroethoxy)pyrimidin-4-yl)-2,8-diazaspiro[4.5]decane-3-carboxylic acid]
Second: CS(=O)(=O)Nc1cccc(-c2cc(Cl)ccc2[C@@H](Oc2cc(N3CCC4(CC3)CN[C@H](C(=O)O)C4)nc(N)n2)C(F)(F)F)c1 [Example 34n, (S)-8-(2-amino-6-((R)-1-(5-chloro-3′-(methylsulfonamido)-[1,1′-biphenyl]-2-yl)-2,2,2-trifluoroethoxy)pyrimidin-4-yl)-2,8-diazaspiro[4.5]decane-3-carboxylic acid]
The IC50 of the first is lower: under 50 nM for the first, 50 to 300 nM for the second. The first is the more potent here.

Compared with `Nc1nc(O[C@@H](c2ccc(Cl)cc2-c2ccccc2)C(F)(F)F)cc(N2CCC3(CC2)CN[C@@H](C(=O)O)C3)n1` [Example 54i, (R)-8-(2-amino-6-((S)-1-(5-chloro-[1,1′-biphenyl]-2-yl)-2,2,2-trifluoroethoxy)pyrimidin-4-yl)-2,8-diazaspiro[4.5]decane-3-carboxylic acid], `CCOc1ccc(-c2cc(Cl)ccc2[C@@H](Oc2cc(N3CCC4(CC3)CN[C@H](C(=O)O)C4)nc(N)n2)C(F)(F)F)cc1Cl` [Example 34ai, (S)-8-(2-amino-6-((R)-1-(3′,5-dichloro-4′-ethoxy-[1,1′-biphenyl]-2-yl)-2,2,2-trifluoroethoxy)pyrimidin-4-yl)-2,8-diazaspiro[4.5]decane-3-carboxylic acid] is lower in IC50: 3000 to 10000 nM for the first, 50 to 300 nM for the second.

same assay, conditions: read-out: TPH1 Range (TPH1 inhibition IC50)

First: Cc1ccn(-c2cc(-c3cccc(Cl)c3)ccc2[C@@H](Oc2cc(N3CCC4(CC3)CN[C@H](C(=O)O)C4)nc(N)n2)C(F)(F)F)n1 [Example 1bk, (S)-8-(2-amino-6-((R)-1-(3′-chloro-3-(3-methyl-1H-pyrazol-1-yl)-[1,1′-biphenyl]-4-yl)-2,2,2-trifluoroethoxy)pyrimidin-4-yl)-2,8-diazaspiro[4.5]decane-3-carboxylic acid]
Second: Nc1nc(O[C@H](c2ccc(-c3ccc4cn[nH]c4c3)cc2)C(F)(F)F)cc(N2CCC3(CC2)CN[C@H](C(=O)O)C3)n1 [Example 55h, (S)-8-(6-((R)-1-(4-(1H-indazol-6-yl)phenyl)-2,2,2-trifluoroethoxy)-2-aminopyrimidin-4-yl)-2,8-diazaspiro[4.5]decane-3-carboxylic acid]
The IC50 of the first is lower: under 50 nM for the first, 50 to 300 nM for the second.

Compared with `Cc1ccn(-c2ccc(-c3ccc(C(=O)O)cc3)cc2[C@@H](Oc2cc(N3CCC4(CC3)CN[C@H](C(=O)O)C4)nc(N)n2)C(F)(F)F)n1` [Example 19g, (S)-8-(2-amino-6-((R)-1-(4′-carboxy-4-(3-methyl-1H-pyrazol-1-yl)-[1,1′-biphenyl]-3-yl)-2,2,2-trifluoroethoxy)pyrimidin-4-yl)-2,8-diazaspiro[4.5] decane-3-carboxylic acid], `Cc1ccc(C)c(-c2ccc([C@@H](Oc3cc(N4CCC5(CC4)CN[C@H](C(=O)O)C5)nc(N)n3)C(F)(F)F)cc2)c1` [Example 55cs, (S)-8-(2-amino-6-((R)-1-(2′,5′-dimethyl-[1,1′-biphenyl]-4-yl)-2,2,2-trifluoroethoxy)pyrimidin-4-yl)-2,8-diazaspiro[4.5]decane-3-carboxylic acid] is higher in IC50: under 50 nM for the first, 300 to 3000 nM for the second.

Compared with `COc1cc(-c2ccc([C@@H](Oc3cc(N4CCC5(CC4)CN[C@H](C(=O)O)C5)nc(N)n3)C(F)(F)F)cc2)ccc1C` [Example 55n, (S)-8-(2-amino-6-((R)-2,2,2-trifluoro-1-(3′-methoxy-4′-methyl-[1,1′-biphenyl]-4-yl)ethoxy)pyrimidin-4-yl)-2,8-diazaspiro[4.5]decane-3-carboxylic acid], `Cc1ccn(-c2cc(-c3ccc([S+](C)[O-])cc3)ccc2[C@@H](Oc2cc(N3CCC4(CC3)CN[C@H](C(=O)O)C4)nc(N)n2)C(F)(F)F)n1` (stereo partly drawn) [Example 1a, (3S)-8-(2-amino-6-((1R)-2,2,2-trifluoro-1-(3-(3-methyl-1H-pyrazol-1-yl)-4′-(methylsulfinyl)-[1,1′-biphenyl]-4-yl)ethoxy)pyrimidin-4-yl)-2,8-diazaspiro[4.5]decane-3-carboxylic acid] is lower in IC50: 300 to 3000 nM for the first, under 50 nM for the second. The second is the more potent here.

Compared with `Cc1ccn(-c2cc(-c3ccc(OC(C)C)c(F)c3)ccc2[C@@H](Oc2cc(N3CCC4(CC3)CN[C@H](C(=O)O)C4)nc(N)n2)C(F)(F)F)n1` [Example 1ax, (S)-8-(2-amino-6-((R)-2,2,2-trifluoro-1-(3′-fluoro-4′-isopropoxy-3-(3-methyl-1H-pyrazol-1-yl)-[1,1′-biphenyl]-4-yl)ethoxy)pyrimidin-4-yl)-2,8-diazaspiro[4.5]decane-3-carboxylic acid], `Cc1cc(Cl)ccc1-c1ccc([C@@H](Oc2cc(N3CCC4(CC3)CN[C@H](C(=O)O)C4)nc(N)n2)C(F)(F)F)cc1` [Example 55cp, (S)-8-(2-amino-6-((R)-1-(4′-chloro-2′-methyl-[1,1′-biphenyl]-4-yl)-2,2,2-trifluoroethoxy)pyrimidin-4-yl)-2,8-diazaspiro[4.5]decane-3-carboxylic acid] is higher in IC50: under 50 nM for the first, 300 to 3000 nM for the second.

“(S)-8-(2-amino-6-((R)-2,2,2-trifluoro-1-(3-(3- methyl-1H-pyrazol-1-yl)-2′,3′,4′,5′-tetrahydro- [1,1′-biphenyl]-4-yl)ethoxy)pyrimidin-4-yl)- 2,8-diazaspiro[4.5]decane-3-carboxylic acid [Example 1v]” and `Cc1ccn(-c2cc(-c3ccc(OC(F)(F)F)c(C)c3)ccc2[C@@H](Oc2cc(N3CCC4(CC3)CN[C@H](C(=O)O)C4)nc(N)n2)C(F)(F)F)n1` [Example 1bq, (S)-8-(2-amino-6-((R)-2,2,2-trifluoro-1-(3′-methyl-3-(3-methyl-1H-pyrazol-1-yl)-4′-(trifluoromethoxy)-[1,1′-biphenyl]-4-yl)ethoxy)pyrimidin-4-yl)-2,8-diazaspiro[4.5]decane-3-carboxylic acid] cannot be ordered by IC50: under 50 nM for the first, under 50 nM for the second.

First: Cc1ccn(-c2cc(-c3cccc(C(=O)N(C)C)c3)ccc2[C@@H](Oc2cc(N3CCC4(CC3)CN[C@H](C(=O)O)C4)nc(C)n2)C(F)(F)F)n1 [Example 29m, (S)-8-(6-((R)-1-(3′-(dimethylcarbamoyl)-3-(3-methyl-1H-pyrazol-1-yl)-[1,1′-biphenyl]-4-yl)-2,2,2-trifluoroethoxy)-2-methylpyrimidin-4-yl)-2,8-diazaspiro[4.5]decane-3-carboxylic acid]
Second: C[C@@H](Nc1nc(N)nc(N2CCC3(CC2)CNC(C(=O)O)C3)n1)c1ccc2ccccc2c1 (stereo partly drawn) [Example 39e, 8-(4-amino-6-(((R)-1-(naphthalen-2-yl)ethyl)amino)-1,3,5-triazin-2-yl)-2,8-diazaspiro[4.5]decane-3-carboxylic acid]
The IC50 of the first is lower: 50 to 300 nM for the first, 300 to 3000 nM for the second. The first is the more potent here.

`Cc1ccn(-c2cc(C3=CCNCC3)ccc2[C@@H](Oc2cc(N3CCC4(CC3)CN[C@H](C(=O)O)C4)nc(N)n2)C(F)(F)F)n1` [Example 1f, (S)-8-(2-amino-6-((R)-2,2,2-trifluoro-1-(2-(3-methyl-1H-pyrazol-1-yl)-4-(1,2,3,6-tetrahydropyridin-4-yl)phenyl)ethoxy)pyrimidin-4-yl)-2,8-diazaspiro[4.5]decane-3-carboxylic acid] and `Nc1nc(O[C@H](c2ccc(Cl)cc2-c2ccc([N+](=O)[O-])cc2)C(F)(F)F)cc(N2CCC3(CC2)CNC(C(=O)O)C3)n1` (stereo partly drawn) [Example 34g, 8-(2-amino-6-((R)-1-(5-chloro-4′-nitro-[1,1′-biphenyl]-2-yl)-2,2,2-trifluoroethoxy)pyrimidin-4-yl)-2,8-diazaspiro[4.5]decane-3-carboxylic acid] fall in the same range of IC50: 50 to 300 nM for the first, 50 to 300 nM for the second.

For `Cc1cn(C)c2ccc(-c3ccc([C@@H](Oc4cc(N5CCC6(CC5)CN[C@H](C(=O)O)C6)nc(N)n4)C(F)(F)F)cc3)cc12` [Example 55y, (S)-8-(2-amino-6-((R)-1-(4-(1,3-dimethyl-1H-indol-5-yl)phenyl)-2,2,2-trifluoroethoxy)pyrimidin-4-yl)-2,8-diazaspiro[4.5]decane-3-carboxylic acid], the IC50 was 50 to 300 nM.
